Results as given in article PMC7180767, “Influence of Selected Antidepressants on the Ciliated Protozoan Spirostomum ambiguum: Toxicity, Bioaccumulation, and Biotransformation Products” (Molecules, 2020).
In brackets after ≈: the same amount, converted by molar mass. Like-named read-outs stand apart in the source and are kept apart here.

Experiments:
Gammarus pulex = settings: cited from earlier work
Ceriodaphnia dubia = settings: cited from earlier work; for toxicity: endpoint not stated
Thamnocephalus platyurus = settings: cited from earlier work
Spirostomum ambiguum [1] = test system: Spirostomum ambiguum
Planorbid sp. = settings: in vivo; cited from earlier work
M. galloprovincialis = settings: fluoxetine 75 ng/L nominal, cited from earlier work
Daphnia magna = settings: endpoint not stated; cited from earlier work
[2] = ref www.drugbank.ca, cited from earlier work; for Log P: octanol-water partition coefficient
Spirostomum ambiguum [3] = test system: Spirostomum ambiguum; remark: listed apart in the source
Notonecta glauca = settings: cited from earlier work
Spirostomum ambiguum [4] = test system: Spirostomum ambiguum; remark: listed apart in the source
in vitro = settings: for LC50 at 1 d / LC50 at 2 d / LC50 at 7 d: Spirostomum ambiguum
Spirostomum ambiguum [5] = assay: microbe, parasite or virus in culture
Oncorhynchus mykiss = settings: cited from earlier work
Leishmania donovani = settings: cited from earlier work
[6] = test system: Hydropsyche sp. and Erpobdella octoculata; settings: effluent reach stream; cited from earlier work
[7] = Spirostomum ambiguum, 7 d, 10 µg/L, pH 7.4
[8] = Spirostomum ambiguum, 7 d, 25 µg/L, pH 7.4
[9] = Spirostomum ambiguum, 8 d, 10 µg/L, pH 7.4
[10] = Spirostomum ambiguum, 8 d, 25 µg/L, pH 7.4
[11] = Spirostomum ambiguum, 12 d, 10 µg/L, pH 7.4
[12] = Spirostomum ambiguum, 12 d, 25 µg/L, pH 7.4

CNCCC(Oc1ccc(C(F)(F)F)cc1)c1ccccc1 (stereo not shown) [Fluoxetine, fluoxetine]
BCF (Gammarus pulex): 185,900 L/kg
toxicity (Ceriodaphnia dubia): 0.23 mg/L
toxicity (Thamnocephalus platyurus; endpoint not stated): 0.85 mg/L
EC20 (Spirostomum ambiguum [1]; 1 d, pH = 6.0): 2.03 ± 0.82 mg/L (≈ 6.56 µM)
EC20 (Spirostomum ambiguum [1]; 1 d, pH = 6.5): 1.16 ± 0.14 mg/L (≈ 3.75 µM)
EC20 (Spirostomum ambiguum [1]; 1 d, pH = 7.4): 1.21 ± 0.04 mg/L (≈ 3.91 µM)
EC20 (Spirostomum ambiguum [1]; 2 d, pH = 6.0): 1.72 ± 0.51 mg/L (≈ 5.56 µM)
EC20 (Spirostomum ambiguum [1]; 2 d, pH = 6.5): 0.98 ± 0.16 mg/L (≈ 3.17 µM)
EC20 (Spirostomum ambiguum [1]; 2 d, pH = 7.4): 1.06 ± 0.11 mg/L (≈ 3.43 µM)
EC20 (Spirostomum ambiguum [1]; 7 d, pH = 6.0): 0.86 ± 0.15 mg/L (≈ 2.78 µM)
EC20 (Spirostomum ambiguum [1]; 7 d, pH = 6.5): 0.58 ± 0.07 mg/L (≈ 1.88 µM)
EC20 (Spirostomum ambiguum [1]; 7 d, pH = 7.4): 0.70 ± 0.13 mg/L (≈ 2.26 µM)
BCF (Planorbid sp.): 3000 L/kg
concentration in mussel (M. galloprovincialis; after 3 days): 2.53 ng/g dry weight
concentration in mussel (M. galloprovincialis; after 15 days): 9.31 ng/g
toxicity (Daphnia magna): 0.82 mg/L
Log P [2]: 4.09
BCF values reached during the uptake phase (Spirostomum ambiguum [3]; S. ambiguum, uptake phase): ≤ 1000 L/kg
BCF (Notonecta glauca): 1387 L/kg

CN1CCN2c3ccccc3Cc3ccccc3C2C1 (stereo not shown) [Mianserin, mianserin]
number of transformation products observed (Spirostomum ambiguum [4]): Five
pKa ([2]; acid dissociation constant): 6.92
Log P [2]: 3.83
time of highest concentration in S. ambiguum cells (Spirostomum ambiguum [3]): two days
Concentration in S. ambiguum (Spirostomum ambiguum [3]; Spirostomum ambiguum, 1 d, 100 µg/L, pH 7.4): 229.05 µg/g
BCF values reached during the uptake phase (Spirostomum ambiguum [3]; Spirostomum ambiguum, pH 7.4): 4939 L/kg

Fc1ccc([C@@H]2CCNC[C@H]2COc2ccc3c(c2)OCO3)cc1 [Paroxetine, paroxetine]
LC50 at 1 d (in vitro; pH 6): 4.53 ± 0.55 µg/mL (≈ 13.8 µM)
LC50 at 2 d (in vitro; pH 6): 2.55 ± 0.75 µg/mL (≈ 7.74 µM)
LC50 at 7 d (in vitro; pH 6): 1.44 ± 0.21 µg/mL (≈ 4.37 µM)
LC50 at 1 d (in vitro; pH 6.5): 1.4 ± 0.06 µg/mL (≈ 4.25 µM)
LC50 at 7 d (in vitro; pH 6.5): 0.81 ± 0.31 µg/mL (≈ 2.46 µM)
LC50 at 1 d (in vitro; pH 7.4): 1.17 ± 0.29 µg/mL (≈ 3.55 µM)
LC50 at 2 d (in vitro; pH 7.4): 1.15 ± 0.3 µg/mL (≈ 3.49 µM)
LC50 at 7 d (in vitro; pH 7.4): 0.77 ± 0.1 µg/mL (≈ 2.34 µM)
LC50 (in vitro; pH 6.5): 1.27 ± 0.16 µg/mL (≈ 3.86 µM)
toxicity (Ceriodaphnia dubia): 0.58 mg/L
toxicity (Daphnia magna): 6.3 mg/L
Bioconcentration factor in S. ambiguum (Spirostomum ambiguum [3]; [7]): 905 L/kg
Concentration in S. ambiguum (Spirostomum ambiguum [3]; [7]): 0.45 µg/g
Bioconcentration factor in S. ambiguum (Spirostomum ambiguum [3]; [8]): 794 L/kg
Concentration in S. ambiguum (Spirostomum ambiguum [3]; [8]): 1.19 µg/g
Bioconcentration factor in S. ambiguum (Spirostomum ambiguum [3]; [9]): 806 L/kg
Concentration in S. ambiguum (Spirostomum ambiguum [3]; [9]): 0.40 µg/g
Bioconcentration factor in S. ambiguum (Spirostomum ambiguum [3]; [10]): 934 L/kg
Concentration in S. ambiguum (Spirostomum ambiguum [3]; [10]): 1.40 µg/g
Bioconcentration factor in S. ambiguum (Spirostomum ambiguum [3]; [11]): 3649 L/kg
Concentration in S. ambiguum (Spirostomum ambiguum [3]; [11]): 1.82 µg/g
Bioconcentration factor in S. ambiguum (Spirostomum ambiguum [3]; [12]): 1234 L/kg
Concentration in S. ambiguum (Spirostomum ambiguum [3]; [12]): 1.85 µg/g
BCF values reached during the uptake phase (Spirostomum ambiguum [3]; Spirostomum ambiguum, pH 7.4): ≤ 1000 L/kg
EC50 (Spirostomum ambiguum [5]; 24 h, 1 d, pH = 6.0): 3.15 ± 1.68 µg/mL (≈ 9.56 µM)
EC50 (Spirostomum ambiguum [5]; 24 h, 1 d, pH = 6.5): 1.37 ± 0.03 µg/mL (≈ 4.16 µM)
EC50 (Spirostomum ambiguum [5]; 24 h, 1 d, pH = 7.4): 1.15 ± 0.29 µg/mL (≈ 3.49 µM)
EC50 (Spirostomum ambiguum [5]; 48 h, 2 d, pH = 6.0): 2.07 ± 0.73 µg/mL (≈ 6.28 µM)
EC50 (Spirostomum ambiguum [5]; 48 h, 2 d, pH = 6.5): 1.24 ± 0.17 µg/mL (≈ 3.76 µM)
EC50 (Spirostomum ambiguum [5]; 48 h, 2 d, pH = 7.4): 1.1 ± 0.29 µg/mL (≈ 3.34 µM)
EC50 (Spirostomum ambiguum [5]; […], 7 d, pH = 6.0): 1.32 ± 0.13 µg/mL (≈ 4.01 µM)
EC50 (Spirostomum ambiguum [5]; […], 7 d, pH = 6.5): 0.76 ± 0.26 µg/mL (≈ 2.31 µM)
EC50 (Spirostomum ambiguum [5]; […], 7 d, pH = 7.4): 0.74 ± 0.06 µg/mL (≈ 2.25 µM)

CN[C@H]1CC[C@@H](c2ccc(Cl)c(Cl)c2)c2ccccc21 [Sertraline, sertraline]
LC50 at 1 d (in vitro; pH 6): 0.85 ± 0.09 µg/mL (≈ 2.78 µM)
LC50 at 2 d (in vitro; pH 6): 0.49 ± 0.1 µg/mL (≈ 1.6 µM)
LC50 at 7 d (in vitro; pH 6): 0.33 ± 0.08 µg/mL (≈ 1.08 µM)
LC50 at 1 d (in vitro; pH 6.5): 0.47 ± 0.11 µg/mL (≈ 1.53 µM)
LC50 at 2 d (in vitro; pH 6.5): 0.33 ± 0.06 µg/mL (≈ 1.08 µM)
LC50 at 7 d (in vitro; pH 6.5): 0.18 ± 0.04 µg/mL (≈ 0.588 µM)
LC50 at 1 d (in vitro; pH 7.4): 0.41 ± 0.05 µg/mL (≈ 1.34 µM)
LC50 at 2 d (in vitro; pH 7.4): 0.35 ± 0.01 µg/mL (≈ 1.14 µM)
LC50 at 7 d (in vitro; pH 7.4): 0.27 ± 0.03 µg/mL (≈ 0.882 µM)
96-h LC50 (Oncorhynchus mykiss): 0.38 mg/L
48-h LC50 (Ceriodaphnia dubia): 0.12 mg/L
24-h LC50 (Thamnocephalus platyurus): 0.6 mg/L
EC20 (Spirostomum ambiguum [1]; Spirostomum ambiguum, 1 d, pH 6): 0.46 ± 0.18 mg/L (≈ 1.5 µM)
EC20 (Spirostomum ambiguum [1]; Spirostomum ambiguum, 1 d, pH 6.5): 0.28 ± 0.04 mg/L (≈ 0.914 µM)
EC20 (Spirostomum ambiguum [1]; Spirostomum ambiguum, 1 d, pH 7.4): 0.29 ± 0.01 mg/L (≈ 0.947 µM)
EC20 (Spirostomum ambiguum [1]; Spirostomum ambiguum, 2 d, pH 6): 0.19 ± 0.03 mg/L (≈ 0.62 µM)
EC20 (Spirostomum ambiguum [1]; Spirostomum ambiguum, 2 d, pH 6.5): 0.22 ± 0.08 mg/L (≈ 0.718 µM)
EC20 (Spirostomum ambiguum [1]; Spirostomum ambiguum, 2 d, pH 7.4): 0.29 ± 0.01 mg/L (≈ 0.947 µM)
EC20 (Spirostomum ambiguum [1]; Spirostomum ambiguum, 7 d, pH 6): 0.20 ± 0.05 mg/L (≈ 0.653 µM)
EC20 (Spirostomum ambiguum [1]; Spirostomum ambiguum, 7 d, pH 6.5): 0.13 ± 0.03 mg/L (≈ 0.425 µM)
EC20 (Spirostomum ambiguum [1]; Spirostomum ambiguum, 7 d, pH 7.4): 0.15 ± 0.01 mg/L (≈ 0.49 µM)
activity against Leishmania donovani (Leishmania donovani): high activity
BCF (Planorbid sp.): 990 L/kg
bioaccumulation factor (BCF) [6]: higher than 2000 L/kg
Log P [2]: 5.06
time of highest concentration in cells (Spirostomum ambiguum [3]; Spirostomum ambiguum, 100 µg/L, pH 7.4): 24 h
BCF values reached during the uptake phase (Spirostomum ambiguum [3]; Spirostomum ambiguum, pH 7.4): 34,092 L/kg
fall of intracellular concentration in the depuration phase, of the highest concentration (Spirostomum ambiguum [3]; Spirostomum ambiguum, pH 7.4): 40%

NCCC(Oc1ccc(C(F)(F)F)cc1)c1ccccc1 (stereo not shown) [norfluoxetine]
concentration in mussel (M. galloprovincialis; after 3 days): 3.06 ng/g dry weight
concentration in mussel (M. galloprovincialis; after 15 days): 11.65 ng/g
